Read-outs that look alike come from different tables or passages of the source.
Key:
[1] = biological target: T1, recombinant full-length HSET (Homo sapiens, UniProt Q9BW19); experiment: ADP-Glo HSET assay (3 μM ATP), microtubule-stimulated ATPase; type: biochemical; details: for IC50: preformed microtubules, 3 μM ATP, read-out: HSET ADP-Glo IC50
T1 construct: 5 nM full-length human N-terminal His-tag HSET; His-tag (N)
T1 sequence (Q9BW19 1-673): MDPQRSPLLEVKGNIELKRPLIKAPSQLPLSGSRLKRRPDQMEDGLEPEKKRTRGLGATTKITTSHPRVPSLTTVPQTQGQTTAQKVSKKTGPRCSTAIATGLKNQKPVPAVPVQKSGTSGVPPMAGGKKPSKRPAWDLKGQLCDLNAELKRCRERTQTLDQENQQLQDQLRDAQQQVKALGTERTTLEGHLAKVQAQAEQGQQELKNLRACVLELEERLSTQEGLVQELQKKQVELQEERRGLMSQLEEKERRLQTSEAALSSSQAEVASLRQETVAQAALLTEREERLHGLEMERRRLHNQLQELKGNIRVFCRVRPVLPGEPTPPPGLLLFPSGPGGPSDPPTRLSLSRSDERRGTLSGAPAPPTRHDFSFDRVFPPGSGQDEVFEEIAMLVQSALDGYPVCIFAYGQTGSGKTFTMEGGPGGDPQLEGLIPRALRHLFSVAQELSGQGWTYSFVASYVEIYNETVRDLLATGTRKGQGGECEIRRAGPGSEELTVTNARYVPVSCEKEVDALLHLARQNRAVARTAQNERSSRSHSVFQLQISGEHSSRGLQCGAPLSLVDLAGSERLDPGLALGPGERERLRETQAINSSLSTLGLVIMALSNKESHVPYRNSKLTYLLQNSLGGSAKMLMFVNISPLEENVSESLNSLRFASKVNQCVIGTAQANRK
How it was run: (§1)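 His-tagged full-length HSET (5 nM) or GST-Eg5 motor domain (4 nM), with 70 μg/mL paclitaxel-stabilised microtubules in HEPES pH 6.8 buffer, was preincubated with compound for 10 min. ATP was then added (3 or 500 μM for HSET, 4.8 μM for Eg5), followed by 80 min at 25 °C and ADP-Glo luminescence. IC50 was fitted with a four-parameter logistic.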

[2] = biological target: T2, GST-tagged Eg5 motor domain (Homo sapiens, UniProt P52732); experiment: ADP-Glo Eg5 assay (4.8 μM ATP); type: biochemical; details: preformed microtubules, 4.8 μM ATP (Table 4)
T2 construct: 4 nM GST-tagged Eg5 motor domain protein (Cytoskeleton, EG01); purchased Cytoskeleton EG01
T2 sequence (P52732 18-359 limits assumed): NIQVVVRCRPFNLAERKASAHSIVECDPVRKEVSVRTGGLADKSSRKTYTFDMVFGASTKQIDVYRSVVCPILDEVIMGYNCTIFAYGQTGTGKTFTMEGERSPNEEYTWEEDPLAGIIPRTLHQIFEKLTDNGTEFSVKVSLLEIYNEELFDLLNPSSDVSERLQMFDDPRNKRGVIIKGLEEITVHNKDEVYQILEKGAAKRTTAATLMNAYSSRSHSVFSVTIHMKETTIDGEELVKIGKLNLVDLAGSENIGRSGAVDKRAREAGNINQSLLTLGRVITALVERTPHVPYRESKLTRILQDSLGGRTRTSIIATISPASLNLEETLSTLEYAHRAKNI
How it was run: as §1

[3] = Kinetic aqueous solubility (KSol), HPLC-UV; type: physicochemical; details: PBS buffer pH 7.4, 100 μM solution with 1% DMSO, HPLC with UV detection
[4] = mean (±SD) n ≥ 3 (37 n = 2, 38 single determination) (Table 3)

LE ([1]; LE = −1.4Log(IC50 [M])/number of non-hydrogen atoms (Table 2))	LLE ([1]; LLE = −Log(IC50 [M]) – cLogP (MoKa) (Table 2))	IC50 ([1]; mean (±SD) n ≥ 3 (Table 4)) [µM]	IC50 ([1]; mean (±SD) n ≥ 3, >200 from a single determination (Table 2)) [µM]	fold increase in HSET inhibition ([1]; propyl ester versus ethyl ester 13)	IC50 [2] [µM]	IC50 [1, 4] [µM]	KSol data [3] [µM]	fold decrease in HSET activity ([1]; compared to its parent compound (35)) [fold]	SMILES
0.35	4.8	0.012	0.012	fivefold	> 200				CCCOC(=O)c1sc(NC(=O)CCNC(=O)c2cccc(-c3noc(C)n3)c2)nc1C [Compound 32, Propyl 4-Methyl-2-(3-(3-(5-methyl-1,2,4-oxadiazol-3-yl)benzamido)propanamido)thiazole-5-carboxylate]
		0.019			> 200	0.019	>90		CCCOC(=O)c1sc(NC(=O)C[C@H](CCCNC)NC(=O)c2cccc(-c3noc(C)n3)c2)nc1C [Compound 35, Propyl (S)-4-Methyl-2-(3-(3-(5-methyl-1,2,4-oxadiazol-3-yl)benzamido)-6-(methylamino)hexanamido)thiazole-5-carboxylate]
		0.011			> 200	0.011	>90		CCCOC(=O)c1sc(NC(=O)C[C@H](CCCN(C)C)NC(=O)c2cccc(-c3noc(C)n3)c2)nc1C [Compound 36, Propyl (S)-2-(6-(Dimethylamino)-3-(3-(5-methyl-1,2,4-oxadiazol-3-yl)benzamido)hexanamido)-4-methylthiazole-5-carboxylate]
						0.217	1.8	11	CCCOC(=O)c1sc(NC(=O)C[C@H](CCCN(C)C(=O)O[C@@H]2CC/C=C/CCC2)NC(=O)c2cccc(-c3noc(C)n3)c2)nc1C [Compound 38, Propyl 2-((S)-6-(((((S,E)-Cyclooct-4-en-1-yl)oxy)carbonyl)(methyl)amino)-3-(3-(5-methyl-1,2,4-oxadiazol-3-yl)benzamido)hexanamido)-4-methylthiazole-5-carboxylate]

— article PMC9969401, “Discovery of 2-(3-Benzamidopropanamido)thiazole-5-carboxylate Inhibitors of the Kinesin HSET (KIFC1) and the Development of Cellular Target Engagement Probes” (Journal of Medicinal Chemistry, 2023)
